# Assay results published in publication PMC12226733, “Evolution of iGluR ligand specificity, polyamine regulation, and ion selectivity inferred from a placozoan epsilon receptor” (Communications Biology, 2025).
# Where “and” joins values, the source holds several entries; their conditions need not be identical. Identical values can stand only once.
# How the values were obtained:
# [1] = target: T1, GluA2(Q) wt (Homo sapiens, UniProt P42262); test: outside-out patch clamp, block by intracellular spermine, HEK-293T/17 cells; type: biochemical;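 as to Normalized current (Inorm) GluA2 wild type: current normalized to the maximum current response at −100 mV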
# T1 construct: host or cells: HEK-293T/17
# Procedure: (§1) Parallel experiments were carried out in human GluA2 homotetramers bearing equivalent Q/R/N and +4 site mutations to compare the regulation of voltage-dependent polyamine block within the broader context of mammalian receptors. Experimental design remained the same, except for using 10 mM glutamate as the agonist used to evoke membrane currents (Fig. 7a, d, g, and j). […] Their properties were accordingly compared to wildtype GluA2(Q) co-expressed with TARP-γ2.
# (§2) HEK-293T/17 cells (ATCC) were maintained in MEM supplemented with GlutaMAX and 10% fetal bovine serum (FBS) at 37 °C and 5% CO2. […] Transient transfections were carried out 48 h post-plating using the calcium phosphate precipitation method. After 6–8 hours, cells were washed twice with PBS and maintained in fresh medium. Cells transfected with mammalian GluA2 cDNA (plasmid vector described above) were returned to an incubator at 37 °C for 24–48 hours and cells transfected with Epsilon GluE1αA were incubated at 28 °C for 48–72 hours. In cells co-transfected with TARP-γ2, 30 μM NBQX was included in the medium to minimize AMPAR/auxiliary-induced cytotoxicity. All constructs were co-transfected with a plasmid encoding enhanced green fluorescent protein (eGFP) to identify transfected cells. Electrophysiology responses were recorded from outside-out patches excised from transfected cells. Recording pipettes were composed of borosilicate glass (3 to 6 megaohm, King Precision Glass) coated with dental wax to reduce electrical noise. All recordings were performed using Axopatch 200B amplifier (Molecular Devices, LLC). Current records were filtered at 5 or 10 kHz and sampled at 25–50 kHz. Series resistance (3 to 12 megaohms) was compensated by 95%. Recordings were performed at a range of holding potentials from −100 mV to 100 mV to study polyamine block. Data was acquired using pClamp9 software (Molecular Devices, LLC). All experiments were performed at room temperature. All chemicals were purchased from Sigma-Aldrich, unless otherwise indicated. External solution contained (in mM): 150 NaCl, 5 HEPES, 0.1 CaCl2, 0.1 MgCl, and […], pH 7.3–7.4. […] The osmotic pressure of all solutions was adjusted to 295 to 300 mOsm with sucrose. […] Stocks were thawed on the day of the experiment and used to prepared agonist-containing external solutions. Raw data for all electrophysiology experiments are provided in Supplementary Data 3. Current-voltage (I-V) relationships were fit using Origin 7 (OriginLab) using a ninth order polynomial function to estimate the reversal potential (Vrev).
# (§3) Agonist-evoked membrane conductance (G) was calculated using the following equation: G=I/(V−Vrev)
# (§4) Conductance-voltage (G-V) relationships were fit using Origin 7 (OriginLab) with the single permeant blocker model as done previously[46]: G=Gmax/1+[Spm]/Kd Where Gmax is the maximal conductance, [Spm] is the internal Spm concentration, and Kd is the dissociation constant.
# (§5) Kd is defined as: Kd=koff+kperm/kon=sumofexitrates/bindingrate
# (§6) And redefined as: Kd=g*exp(V/h)+L*exp(V/k) Where h and k are voltage dependencies of g and L, respectively, and at 0 mV: g=koff/konandL=kperm/kon
# [2] = target: T2, GluA2(Q) wt + γ2 (Homo sapiens, UniProt P42262); test: as above; type: biochemical; conditions: for Normalized conductance (Gnorm) GluA2 wild type + γ2 / Normalized current (Inorm) GluA2 wild type + γ2: single recordings and AVG;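 as to Normalized conductance (Gnorm) GluA2 wild type + γ2: normalized to each receptor's own maximal conductance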
# T2 construct: expressed in transfected cells; host or cells: HEK-293T/17
# Procedure: as §1, §2, §3, §4, §5, §6
# [3] = -100 mV, single recordings and AVG
# T2 sequence (P42262 25-883): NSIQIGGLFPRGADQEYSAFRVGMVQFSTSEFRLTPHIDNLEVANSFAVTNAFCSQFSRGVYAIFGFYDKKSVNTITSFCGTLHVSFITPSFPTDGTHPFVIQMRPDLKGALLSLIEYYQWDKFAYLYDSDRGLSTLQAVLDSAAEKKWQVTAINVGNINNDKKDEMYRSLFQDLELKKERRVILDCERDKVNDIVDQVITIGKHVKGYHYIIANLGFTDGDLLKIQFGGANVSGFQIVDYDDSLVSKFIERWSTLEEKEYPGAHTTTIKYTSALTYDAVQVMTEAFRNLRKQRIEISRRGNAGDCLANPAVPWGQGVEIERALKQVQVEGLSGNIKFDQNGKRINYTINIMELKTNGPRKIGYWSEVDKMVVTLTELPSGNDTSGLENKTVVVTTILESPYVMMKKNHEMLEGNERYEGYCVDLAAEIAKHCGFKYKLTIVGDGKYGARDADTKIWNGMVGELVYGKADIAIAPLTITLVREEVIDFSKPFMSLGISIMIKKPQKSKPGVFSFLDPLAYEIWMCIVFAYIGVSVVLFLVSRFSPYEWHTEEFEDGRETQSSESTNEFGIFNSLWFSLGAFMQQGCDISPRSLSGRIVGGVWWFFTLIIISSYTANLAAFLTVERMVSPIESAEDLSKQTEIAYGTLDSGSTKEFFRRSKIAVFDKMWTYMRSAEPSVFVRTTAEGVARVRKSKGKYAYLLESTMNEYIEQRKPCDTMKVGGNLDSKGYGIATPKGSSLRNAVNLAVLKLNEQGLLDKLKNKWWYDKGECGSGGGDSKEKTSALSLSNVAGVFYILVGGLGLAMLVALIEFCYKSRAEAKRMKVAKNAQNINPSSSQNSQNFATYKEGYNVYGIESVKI
# T2 sequence (Q9Y698 whole entry partner): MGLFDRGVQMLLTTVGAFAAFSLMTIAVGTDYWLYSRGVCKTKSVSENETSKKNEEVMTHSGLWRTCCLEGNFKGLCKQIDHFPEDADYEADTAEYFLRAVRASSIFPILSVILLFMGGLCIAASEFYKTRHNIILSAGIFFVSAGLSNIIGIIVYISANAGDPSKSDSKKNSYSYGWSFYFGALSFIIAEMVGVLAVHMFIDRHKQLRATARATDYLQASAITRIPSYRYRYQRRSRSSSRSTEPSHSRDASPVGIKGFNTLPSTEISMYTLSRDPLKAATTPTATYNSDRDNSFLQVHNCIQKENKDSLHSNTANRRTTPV
# T1 sequence (P42262 25-883): as the sequence (P42262 25-883) above
compound,measurement,setting,value
NCCCNCCCCNCCCN [spermine],Normalized conductance (Gnorm) GluA2 wild type,"[1]; -40 mV, single recordings and AVG",0.53 and 0.50 and 0.49 and 0.66 and 0.63 and 0.73 and 0.59
same,Normalized conductance (Gnorm) GluA2 wild type,"[1]; -50 mV, single recordings and AVG",0.65 and 0.63 and 0.62 and 0.80 and 0.70 and 0.82
same,Normalized conductance (Gnorm) GluA2 wild type,"[1]; -60 mV, single recordings and AVG",0.75 and 0.73 and 0.72 and 0.89 and 0.80 and 0.79
same,Normalized conductance (Gnorm) GluA2 wild type,"[1]; -70 mV, single recordings and AVG",0.83 and 0.76 and 0.82 and 0.93 and 0.85 and 0.92
same,Normalized conductance (Gnorm) GluA2 wild type,"[1]; -80 mV, single recordings and AVG",0.88 and 0.91 and 0.95 and 0.89
same,Normalized conductance (Gnorm) GluA2 wild type,"[1]; -90 mV, single recordings and AVG",0.90 and 0.93 and 0.98 and 0.99 and 0.95
same,Normalized conductance (Gnorm) GluA2 wild type,[1]; [3],0.96 and 0.99 and 0.97 and 1.03 and 1.00
same,Normalized current (Inorm) GluA2 wild type,[1]; [3],-1.00
same,"h, voltage dependency of block onset",[1]; GluA2(Q) wt,−18.5 ± 0.7 mV
same,"k, voltage dependency of block relief",[1]; GluA2(Q) wt,14.3 ± 0.6 mV
same,Kd,"[1]; GluA2(Q) wt, 30 µM internal Spm, 10 mM glutamate, read-out: Kd(0mV)",5.4 ± 2.6 µM
same,k,"[1]; fit of Gnorm vs voltage, GluA2 wild type, single recordings",16.05 and 14.65 and 13.61 and 14.56 and 11.91 and 14.81
same,Normalized conductance (Gnorm) GluA2 wild type + γ2,[2]; 0 mV,0.51 and 0.59 and 0.49 and 0.67 and 0.55 and 0.56
same,Normalized conductance (Gnorm) GluA2 wild type + γ2,[2]; 10 mV,0.45 and 0.34 and 0.59 and 0.41
same,Normalized current (Inorm) GluA2 wild type + γ2,[2]; 10 mV,0.0271 and 0.03 and 0.0219 and 0.0374 and 0.0215 and 0.0279
same,Normalized conductance (Gnorm) GluA2 wild type + γ2,[2]; 20 mV,0.46 and 0.44 and 0.31 and 0.56 and 0.39 and 0.43
same,Normalized current (Inorm) GluA2 wild type + γ2,[2]; 20 mV,0.06 and 0.0741 and 0.05 and 0.09 and 0.07
same,Normalized conductance (Gnorm) GluA2 wild type + γ2,[2]; 30 mV,0.53 and 0.56 and 0.39 and 0.59 and 0.50 and 0.51
same,Normalized current (Inorm) GluA2 wild type + γ2,[2]; 30 mV,0.12 and 0.15 and 0.10 and 0.13
same,Normalized conductance (Gnorm) GluA2 wild type + γ2,[2]; 40 mV,0.62 and 0.71 and 0.51 and 0.66 and 0.63
same,Normalized current (Inorm) GluA2 wild type + γ2,[2]; 40 mV,0.20 and 0.26 and 0.18 and 0.23 and 0.22
same,Normalized conductance (Gnorm) GluA2 wild type + γ2,[2]; 50 mV,0.72 and 0.83 and 0.63 and 0.75 and 0.82
same,Normalized current (Inorm) GluA2 wild type + γ2,[2]; 50 mV,0.30 and 0.38 and 0.28 and 0.34 and 0.37 and 0.33
same,Normalized conductance (Gnorm) GluA2 wild type + γ2,[2]; 60 mV,0.78 and 0.91 and 0.73 and 0.84 and 0.90 and 0.83
same,Normalized current (Inorm) GluA2 wild type + γ2,[2]; 60 mV,0.39 and 0.50 and 0.46 and 0.45
same,Normalized conductance (Gnorm) GluA2 wild type + γ2,[2]; 70 mV,0.82 and 0.96 and 0.81 and 0.89 and 0.95
same,Normalized current (Inorm) GluA2 wild type + γ2,[2]; 70 mV,0.49 and 0.62 and 0.51 and 0.57
same,Normalized conductance (Gnorm) GluA2 wild type + γ2,[2]; 80 mV,0.83 and 1.04 and 0.88 and 0.91 and 0.99 and 0.93
same,Normalized current (Inorm) GluA2 wild type + γ2,[2]; 80 mV,0.57 and 0.78 and 0.64 and 0.67 and 0.75 and 0.68
same,Normalized conductance (Gnorm) GluA2 wild type + γ2,[2]; 90 mV,0.86 and 0.93 and 1.02 and 0.94
same,Normalized current (Inorm) GluA2 wild type + γ2,[2]; 90 mV,0.68 and 0.77 and 0.73 and 0.87 and 0.76
same,Normalized current (Inorm) GluA2 wild type + γ2,[2]; 100 mV,0.71 and 0.89 and 0.76 and 1.01 and 0.84
same,Normalized conductance (Gnorm) GluA2 wild type + γ2,[2]; -10 mV,0.69 and 0.62 and 0.75
same,Normalized current (Inorm) GluA2 wild type + γ2,[2]; -10 mV,-0.0852
same,Normalized conductance (Gnorm) GluA2 wild type + γ2,[2]; -20 mV,0.78 and 0.82 and 0.74 and 0.85 and 0.80
same,Normalized conductance (Gnorm) GluA2 wild type + γ2,[2]; -30 mV,0.84 and 0.88 and 0.83 and 0.85 and 0.92 and 0.86
same,Normalized conductance (Gnorm) GluA2 wild type + γ2,[2]; -40 mV,0.90 and 0.92 and 0.89 and 0.96 and 0.91
same,Normalized conductance (Gnorm) GluA2 wild type + γ2,[2]; -50 mV,0.96 and 0.94 and 0.92 and 0.93 and 0.98 and 0.95
same,Normalized conductance (Gnorm) GluA2 wild type + γ2,[2]; -60 mV,0.99 and 0.97 and 0.98
same,Normalized conductance (Gnorm) GluA2 wild type + γ2,[2]; -70 mV,1.01 and 0.98 and 0.99 and 0.97 and 0.96
same,Normalized conductance (Gnorm) GluA2 wild type + γ2,[2]; -80 mV,1.01 and 0.98 and 1.00 and 0.99
same,Normalized conductance (Gnorm) GluA2 wild type + γ2,[2]; -90 mV,1.00 and 0.99 and 0.98
same,Normalized conductance (Gnorm) GluA2 wild type + γ2,[2]; -100 mV,1.02 and 1.00 and 0.95
same,Normalized current (Inorm) GluA2 wild type + γ2,[2]; -100 mV,-1.00
same,"h, voltage dependency of block onset",[2]; GluA2(Q) wt + γ2,−16.7 ± 1.9 mV
same,"k, voltage dependency of block relief",[2]; GluA2(Q) wt + γ2,18.2 ± 3.0 mV
same,Kd,"[2]; GluA2(Q) wt + γ2, 30 µM internal Spm, 10 mM glutamate, read-out: Kd(0mV)",38.4 ± 11.9 µM
same,h,"[2]; fit of Gnorm vs voltage, GluA2 wild type + γ2, single recordings",-13.23
